These are literature values, as cited in patent US20260201030A1, “ANTIBODY, ANTIBODY-DRUG CONJUGATE THEREOF AND USE THEREOF” (EVOPOINT BIOSCIENCES CO., LTD., priority 2021, published 2026).

For the data set the following is noted: FL118 alone; cited from earlier work.

On to `CC[C@@]1(O)C(=O)OCc2c1cc1n(c2=O)Cc2cc3cc4c(cc3nc2-1)OCO4` [FL118, (20S)-10,11-methylenedioxy camptothecin], for which the water solubility result is recorded as “extremely poor water solubility”.
